Columns and labels:
[1] = tested on: [d-(TTGGGGT)]4 (DNA, G4) TTGGGGT; experiment: 1H NMR titration (T7H6 and T7CH3 shifts); conditions: 100 mM KCl, 10 mM K2HPO4; 1 mM EDTA, pH 7.0, 25 °C, 90% H2O/10% D2O; site 1 of 2 (G6-T7); apparent
[2] = tested on: [d-(TTGGGGT)]4 (DNA, G4) TTGGGGT; experiment: DSC; conditions: 100 mM KCl, 10 mM K2HPO4; 1 mM EDTA, pH 7.0; 50 µM quadruplex, D/N = 4.0 (200 µM daunomycin); third transition
[3] = tested on: [d-(TTGGGGT)]4 immobilized (SPR) (DNA, G4) TTGGGGT; experiment: SPR steady state; conditions: 100 mM KCl; 10 mM HEPES, 3 mM EDTA, 0.005% P20, pH 7.4, 25 °C; dominant mode

Structure (SMILES): COc1cccc2c1C(=O)c1c(O)c3c(c(O)c1C2=O)C[C@@](O)(C(C)=O)C[C@@H]3O[C@H]1C[C@H](N)[C@H](O)[C@H](C)O1
- Kb [1]: ~ 1.8–2.3 × 10^4 M^−1
- ΔTm3 [2]: 14.4 ± 1.1 °C
- Kb [3]: ~ 4.1 × 10^3 M^−1

Reference: PMC6225185 (2018)
